Our source for the Ki values is US10196390B2, “TYK2 inhibitors and uses thereof” (Nimbus Lakshmi, Inc., priority 2014, dated 2019).

Assay [1] addresses JAK2 (Homo sapiens (Human), UniProt O60674). Put plainly: JAK2 activity inhibition assay (radioactive kinase assay / Caliper assay). It is filed as biochemical. Particulars: read-out: JAK2 Ki. The method, then:
The caliper machine employs an off chip mobility shift assay to detect phosphorylated peptide substrates from kinase assays, using microfluidics technology. […] Compounds are serially diluted in DMSO then further diluted in assay buffer (25 mM HEPES, pH 7.5, 0.01% Brij-35, 0.01% Triton, 0.5 mM EGTA). 5 ul of diluted compound was added into wells first, then 10 ul of enzyme mix was added into wells, followed by 10 uL of substrate mix (peptide and ATP in 10 mM MgCl2) to start reaction. Reaction was incubated at 28° C. for 25 min and then added 25 ul stop buffer (100 mM HEPES, 0.015% Brij-35, 50 mM EDTA), followed by reading with Caliper.

The target of assay [2] is TYK2 (Homo sapiens (Human), UniProt P29597). Put plainly: Tyk2 activity inhibition assay (radioactive kinase assay / Caliper assay). Type of assay: biochemical. On the procedure:
Peptide substrate, [[…]], (20 μM) is prepared in reaction buffer (20 mM Hepes pH 7.5, 10 mM MgCl2, 1 mM EGTA, 0.02% Brij35, 0.02 mg/mL BSA, […], 2 mM DTT, 1% DMSO. TYK2 (Invitrogen) kinase is added, followed by compounds in DMSO. 33PATP is added to initiate the reaction in ATP at 10 μM. Kinase reaction is incubated for 120 min at room temp and reactions are spotted onto P81 ion exchange paper (Whatman #3698-915), and then washed extensively in 0.75% phosphoric acid, prior to reading the radioactivity counts. For JAK2 (Invitrogen) kinase assay the peptide substrate poly[Glu:Tyr](4:1), 0.2 mg/ml is used, in the reaction carried out the same as for TYK2.
The caliper machine employs an off chip mobility shift assay to detect phosphorylated peptide substrates from kinase assays, using microfluidics technology. The assays are carried out at ATP concentration equivalent to the ATP Km, and at 1 mM ATP. Compounds are serially diluted in DMSO then further diluted in assay buffer (25 mM HEPES, pH 7.5, 0.01% Brij-35, 0.01% Triton, 0.5 mM EGTA). 5 ul of diluted compound was added into wells first, then 10 ul of enzyme mix was added into wells, followed by 10 uL of substrate mix (peptide and ATP in 10 mM MgCl2) to start reaction. Reaction was incubated at 28° C. for 25 min and then added 25 ul stop buffer (100 mM HEPES, 0.015% Brij-35, 50 mM EDTA), followed by reading with Caliper. JAK2 at 1 nM final concentration and TYK2 at 9.75 nM are from Carna, and substrates used are ATP at 20 and 16 uM, respectively. JAK2 assay uses peptide 22 and TYK2 uses peptide 30 (Caliper), each at 3 uM.

Chain of JAK2 (O60674 whole entry): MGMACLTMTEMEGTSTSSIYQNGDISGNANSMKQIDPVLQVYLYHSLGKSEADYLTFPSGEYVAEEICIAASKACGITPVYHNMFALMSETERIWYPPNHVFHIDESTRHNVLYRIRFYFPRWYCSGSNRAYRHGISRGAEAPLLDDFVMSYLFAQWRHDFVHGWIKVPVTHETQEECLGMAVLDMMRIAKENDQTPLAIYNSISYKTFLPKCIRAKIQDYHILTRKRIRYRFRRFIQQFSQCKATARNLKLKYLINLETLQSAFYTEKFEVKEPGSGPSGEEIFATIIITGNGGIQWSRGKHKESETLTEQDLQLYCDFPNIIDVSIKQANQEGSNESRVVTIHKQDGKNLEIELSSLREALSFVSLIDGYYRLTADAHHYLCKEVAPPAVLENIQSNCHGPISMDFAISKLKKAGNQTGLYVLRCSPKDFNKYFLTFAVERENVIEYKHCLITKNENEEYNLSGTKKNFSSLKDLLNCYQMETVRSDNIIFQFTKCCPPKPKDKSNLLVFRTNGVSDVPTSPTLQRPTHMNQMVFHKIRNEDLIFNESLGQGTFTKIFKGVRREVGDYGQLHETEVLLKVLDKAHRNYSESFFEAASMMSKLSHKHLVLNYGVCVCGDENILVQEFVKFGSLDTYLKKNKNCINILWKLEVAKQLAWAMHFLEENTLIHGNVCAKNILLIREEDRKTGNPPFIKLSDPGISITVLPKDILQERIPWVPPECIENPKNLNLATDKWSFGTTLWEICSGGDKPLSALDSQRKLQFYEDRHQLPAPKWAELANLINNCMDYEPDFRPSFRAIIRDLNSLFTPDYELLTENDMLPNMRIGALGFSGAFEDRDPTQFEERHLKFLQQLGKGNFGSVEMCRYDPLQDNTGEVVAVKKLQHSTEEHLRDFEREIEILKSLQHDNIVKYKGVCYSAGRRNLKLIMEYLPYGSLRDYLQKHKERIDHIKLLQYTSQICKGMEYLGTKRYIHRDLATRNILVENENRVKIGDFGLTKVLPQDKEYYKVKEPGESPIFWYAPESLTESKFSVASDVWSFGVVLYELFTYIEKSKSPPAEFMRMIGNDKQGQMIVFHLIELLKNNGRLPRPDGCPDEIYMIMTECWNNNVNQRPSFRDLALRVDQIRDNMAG
Chain of TYK2 (P29597 whole entry): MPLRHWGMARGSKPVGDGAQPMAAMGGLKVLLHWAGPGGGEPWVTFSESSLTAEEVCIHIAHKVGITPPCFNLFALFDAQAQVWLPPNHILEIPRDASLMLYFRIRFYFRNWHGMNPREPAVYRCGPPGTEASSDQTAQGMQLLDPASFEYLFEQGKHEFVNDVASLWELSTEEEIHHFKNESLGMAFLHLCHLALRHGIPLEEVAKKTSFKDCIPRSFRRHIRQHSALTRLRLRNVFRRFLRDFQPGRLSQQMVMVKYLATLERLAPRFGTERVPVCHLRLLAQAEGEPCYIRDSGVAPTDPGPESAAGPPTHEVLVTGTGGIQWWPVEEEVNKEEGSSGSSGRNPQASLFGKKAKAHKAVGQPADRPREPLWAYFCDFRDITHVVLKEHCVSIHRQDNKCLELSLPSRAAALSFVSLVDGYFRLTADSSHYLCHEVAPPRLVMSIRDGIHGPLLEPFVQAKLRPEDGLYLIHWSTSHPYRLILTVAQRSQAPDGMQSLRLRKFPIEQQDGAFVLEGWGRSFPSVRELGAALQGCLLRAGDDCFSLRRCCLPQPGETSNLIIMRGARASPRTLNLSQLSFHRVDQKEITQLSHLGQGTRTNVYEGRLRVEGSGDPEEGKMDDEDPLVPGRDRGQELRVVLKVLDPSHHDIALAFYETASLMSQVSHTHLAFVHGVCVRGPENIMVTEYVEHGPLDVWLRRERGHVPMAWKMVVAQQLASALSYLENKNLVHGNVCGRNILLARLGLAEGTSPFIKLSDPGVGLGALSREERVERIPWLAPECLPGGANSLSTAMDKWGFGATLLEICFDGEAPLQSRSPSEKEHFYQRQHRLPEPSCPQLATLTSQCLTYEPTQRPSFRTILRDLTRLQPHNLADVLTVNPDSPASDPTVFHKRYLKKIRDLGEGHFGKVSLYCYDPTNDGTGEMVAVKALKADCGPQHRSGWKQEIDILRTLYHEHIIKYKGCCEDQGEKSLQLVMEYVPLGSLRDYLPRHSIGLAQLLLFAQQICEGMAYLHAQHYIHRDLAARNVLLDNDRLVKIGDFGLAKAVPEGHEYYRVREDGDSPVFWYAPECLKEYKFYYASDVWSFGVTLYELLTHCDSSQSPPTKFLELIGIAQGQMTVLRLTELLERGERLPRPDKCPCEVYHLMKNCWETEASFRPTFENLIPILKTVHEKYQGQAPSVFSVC

As for `O=C(Cc1ccc(Nc2nc(-c3c(F)cccc3F)nc3c2C(=O)NC3)cc1)N[C@@H]1CCCNC1` [Compound I-61, (R)-2-(4-((2-(2,6-difluorophenyl)-5-oxo-6,7-dihydro-5H-pyrrolo[3,4-d]pyrimidin-4-yl)amino)phenyl)-N-(piperidin-3-yl)acetamide], the inhibition constant Ki – broadly, a measure of affinity in units of concentration, obtained from inhibition or displacement – in assay [1] was 0.1 to 1 µM; in assay [2] it was < 0.01 µM.

For the molecule `O=C1NCc2nc(-c3c(F)cccc3F)nc(Nc3ccc(CC(=O)N4CC5(COC5)C4)cc3)c21` [Compound I-62, 2-(2,6-difluorophenyl)-4-((4-(2-oxo-2-(2-oxa-6-azaspiro[3.3]heptan-6-yl)ethyl)phenyl)amino)-6,7-dihydro-5H-pyrrolo[3,4-d]pyrimidin-5-one], the Ki in assay [1] was 0.1 to 1 µM; in assay [2], < 0.01 µM.

Turning to `C[C@H](CO)NC(=O)Cc1ccc(Nc2nc(-c3c(F)cccc3F)nc3c2C(=O)NC3)cc1` [Compound I-63, (R)-2-(4-((2-(2,6-difluorophenyl)-5-oxo-6,7-dihydro-5H-pyrrolo[3,4-d]pyrimidin-4-yl)amino)phenyl)-N-(1-hydroxypropan-2-yl)acetamide], the figures for the Ki in assay [1] and in assay [2] were 0.1 to 1 µM and < 0.01 µM, respectively.

With `O=C1NCc2nc(-c3c(F)cccc3F)nc(Nc3cnn(CC(=O)N4CCC[C@H]4CO)c3)c21` [Compound I-68, (S)-2-(2,6-difluorophenyl)-4-((1-(2-(2-(hydroxymethyl)pyrrolidin-1-yl)-2-oxoethyl)-1H-pyrazol-4-yl)amino)-6,7-dihydro-5H-pyrrolo[3,4-d]pyrimidin-5-one], the results for the inhibition constant Ki in assay [1] and in assay [2] were > 1 µM and 0.01 to 0.1 µM, respectively.

As for `CCNC(=O)Cn1cc(Nc2nc(-c3c(F)cccc3F)nc3c2C(=O)NC3)cn1` [Compound I-69, 2-(4-((2-(2,6-difluorophenyl)-5-oxo-6,7-dihydro-5H-pyrrolo[3,4-d]pyrimidin-4-yl)amino)-1H-pyrazol-1-yl)-N-ethylacetamide], the Ki in assay [1] was > 1 µM; in assay [2], 0.01 to 0.1 µM.

On to `C[C@H](CO)NC(=O)Cn1cc(Nc2nc(-c3c(F)cccc3F)nc3c2C(=O)NC3)cn1` [Compound I-70, (R)-2-(4-((2-(2,6-difluorophenyl)-5-oxo-6,7-dihydro-5H-pyrrolo[3,4-d]pyrimidin-4-yl)amino)-1H-pyrazol-1-yl)-N-(1-hydroxypropan-2-yl)acetamide], for which the Ki was > 1 µM in assay [1] and 0.01 to 0.1 µM in assay [2].

Consider `O=C(O)Cn1cc(Nc2nc(-c3c(F)cccc3F)nc3c2C(=O)NC3)cn1` [Compound I-71, 2-(4-((2-(2,6-difluorophenyl)-5-oxo-6,7-dihydro-5H-pyrrolo[3,4-d]pyrimidin-4-yl)amino)-1H-pyrazol-1-yl)acetic Acid], for which the Ki in assay [1] is > 1 µM; in assay [2], 0.01 to 0.1 µM.

Turning to `O=C(Cc1ccc(Nc2nc(-c3c(F)cccc3F)nc3c2C(=O)NC3)cc1)NCC1CNC1` [Compound I-72, N-(azetidin-3-ylmethyl)-2-(4-((2-(2,6-difluoro-phenyl)-5-oxo-6,7-dihydro-5H-pyrrolo[3,4-d]pyrimidin-4-yl)amino)-phenyl)acetamide], the Ki in assay [1] was 0.1 to 1 µM; in assay [2] it was < 0.01 µM.

For `O=C(Cc1ccc(Nc2nc(-c3c(F)cccc3F)nc3c2C(=O)NC3)cc1)N[C@@H]1CCNC1` [Compound I-73, (R)-2-(4-((2-(2,6-difluorophenyl)-5-oxo-6,7-dihydro-5H-pyrrolo[3,4-d]pyrimidin-4-yl)amino)phenyl)-N-(pyrrolidin-3-yl)acetamide], the Ki is 0.1 to 1 µM in assay [1] and < 0.01 µM in assay [2].

As for `C[C@@H](CO)NC(=O)Cc1ccc(Nc2nc(-c3c(F)cccc3F)nc3c2C(=O)NC3)cc1` [Compound I-74, (S)-2-(4-((2-(2,6-difluorophenyl)-5-oxo-6,7-dihydro-5H-pyrrolo[3,4-d]pyrimidin-4-yl)amino)phenyl)-N-(1hydroxypropan-2-yl)acetamide], the Ki was 0.1 to 1 µM in assay [1] and < 0.01 µM in assay [2].

In the case of `C[C@H](O)CNC(=O)Cc1ccc(Nc2nc(-c3c(F)cccc3F)nc3c2C(=O)NC3)cc1` [Compound I-75, (S)-2-(4-((2-(2,6-difluorophenyl)-5-oxo-6,7-dihydro-5H-pyrrolo[3,4-d]pyrimidin-4-yl)amino)phenyl)-N-(2-hydroxy-propyl)acetamide], the values for the inhibition constant Ki in assay [1] and in assay [2] were 0.1 to 1 µM and < 0.01 µM, respectively.

`CC(C)(O)CNC(=O)Cc1ccc(Nc2nc(-c3c(F)cccc3F)nc3c2C(=O)NC3)cc1` [Compound I-76, 2-(4-((2-(2,6-difluorophenyl)-5-oxo-6,7-dihydro-5H-pyrrolo[3,4-d]pyrimidin-4-yl)amino)phenyl)-N-(2-hydroxy-2-methylpropyl)acetamide]: the inhibition constant Ki is 0.01 to 0.1 µM in assay [1] and < 0.01 µM in assay [2].

For the molecule `C[C@@H](O)CNC(=O)Cc1ccc(Nc2nc(-c3c(F)cccc3F)nc3c2C(=O)NC3)cc1` [Compound I-77, (R)-2-(4-((2-(2,6-difluorophenyl)-5-oxo-6,7-dihydro-5H-pyrrolo[3,4-d]pyrimidin-4-yl)amino)phenyl)-N-(2-hydroxy-propyl)acetamide], the inhibition constant (Ki) was 0.1 to 1 µM in assay [1] and < 0.01 µM in assay [2].

Turning to `O=C(Cc1ccc(Nc2nc(-c3c(F)cccc3F)nc3c2C(=O)NC3)cc1)NCCO` [Compound I-79, 2-(4-((2-(2,6-difluorophenyl)-5-oxo-6,7-dihydro-5H-pyrrolo[3,4-d]pyrimidin-4-yl)amino)phenyl)-N-(2-hydroxy-ethyl)acetamide], the Ki was 0.1 to 1 µM in assay [1] and < 0.01 µM in assay [2].

As to `O=C(Cc1ccc(Nc2nc(-c3c(F)cccc3Cl)nc3c2C(=O)NC3)cc1)N[C@@H]1CCNC1` [Compound I-81, (R)-2-(4-((2-(2-chloro-6-fluorophenyl)-5-oxo-6,7-dihydro-5H-pyrrolo[3,4-d]pyrimidin-4-yl)amino)phenyl)-N-(pyrrolidin-3-yl)acetamide], the Ki was 0.1 to 1 µM in assay [1] and < 0.01 µM in assay [2].

Regarding `O=C(O)Cc1ccc(Nc2nc(-c3c(F)cccc3C(F)(F)F)nc3c2C(=O)NC3)cc1` [Compound I-82, 2-(4-((2-(2-fluoro-6-(trifluoromethyl)phenyl)-5-oxo-6,7-dihydro-5H-pyrrolo[3,4-d]pyrimidin-4-yl)amino)phenyl)acetic Acid], the Ki in assay [1] is > 1 µM; in assay [2], 0.01 to 0.1 µM.

As to `O=C(Cc1ccc(Nc2nc(-c3c(F)cccc3C(F)(F)F)nc3c2C(=O)NC3)cc1)NC1CCNCC1` [Compound I-83, 2-(4-((2-(2-fluoro-6-(trifluoromethyl)phenyl)-5-oxo-6,7-dihydro-5H-pyrrolo[3,4-d]pyrimidin-4-yl)amino)phenyl)-N-(piperidin-4-yl)acetamide], the Ki in assay [1] fell in the range of 0.1 to 1 µM; in assay [2], 0.01 to 0.1 µM.

On to `O=C1NCc2nc(-c3c(F)cccc3F)nc(Nc3ccc(CC(=O)N4CCS(=O)(=O)CC4)cc3)c21` [Compound I-84, 2-(2,6-difluorophenyl)-4-((4-(2-(1,1-dioxidothiomorpholino)-2-oxoethyl)phenyl)amino)-6,7-dihydro-5H-pyrrolo[3,4-d]pyrimidin-5-one], for which the inhibitory constant (Ki) in assay [1] is 0.01 to 0.1 µM; in assay [2], < 0.01 µM.

As to `O=C(O)Cc1ccc(Nc2nc(-c3c(F)cncc3F)nc3c2C(=O)NC3)cc1` [Compound I-85, 2-(4-((2-(3,5-difluoropyridin-4-yl)-5-oxo-6,7-dihydro-5H-pyrrolo[3,4-d]pyrimidin-4-yl)amino)phenyl)acetic Acid], the inhibitory constant (Ki) in assay [1] is > 1 µM; in assay [2], 0.01 to 0.1 µM.

As for `O=C1NCc2nc(-c3c(F)cccc3F)cc(Nc3ccc([C@H]4CCNC4=O)cn3)c21` [Compound I-91, (R)-2-(2,6-difluorophenyl)-4-((5-(2-oxopyrrolidin-3-yl)pyridin-2-yl)amino)-6,7-dihydro-5H-pyrrolo[3,4-b]pyridin-5-one], the Ki in assay [1] was 0.01 to 0.1 µM; in assay [2], < 0.01 µM.

Consider `O=C1NCc2nc(-c3c(F)cccc3F)cc(Nc3ccc([C@@H]4CCNC4=O)cn3)c21` [Compound I-92, (S)-2-(2,6-difluorophenyl)-4-((5-(2-oxopyrrolidin-3-yl)pyridin-2-yl)amino)-6,7-dihydro-5H-pyrrolo[3,4-b]pyridin-5-one], for which the inhibition constant Ki is 0.01 to 0.1 µM in assay [1] and < 0.01 µM in assay [2].

Turning to `COC(=O)[C@@H]1COCCN1C(=O)Cc1ccc(Nc2nc(-c3c(F)cccc3F)nc3c2C(=O)NC3)cc1` [Compound I-111, methyl (S)-4-(2-(4-((2-(2,6-difluorophenyl)-5-oxo-6,7-dihydro-5H-pyrrolo[3,4-d]pyrimidin-4-yl)amino)phenyl)acetyl)morpholine-3-carboxylate], the results for the Ki in assay [1] and in assay [2] were 0.1 to 1 µM and 0.01 to 0.1 µM, respectively.
